What was measured:
[1] = Lipophilicity, logP of the compound; settings: octanol/water
[2] = Lipophilicity, logD of compound at pH 7; settings: buffer
[3] = Dissociation constant, pKa of the compound; assay type: physicochemical
[4] = target: Neuronal acetylcholine receptor; alpha4/beta2 (Homo sapiens, UniProt P17787+P43681); assay: Binding affinity to nACh alpha4beta2 receptor (unknown origin) assessed as inhibition constant; assay type: protein-complex assay
[5] = Drug distribution in rat brain assessed as dissociation constant; assay type: ADME, tissue-based
[6] = Drug distribution in rat brain assessed as maximum binding; assay type: ADME, tissue-based; settings: in vivo
[7] = target: Neuronal acetylcholine receptor subunit alpha-7 (Rattus norvegicus, UniProt Q05941); assay: Binding affinity to rat nACh alpha7 receptor assessed as inhibition constant
[8] = target: Neuronal acetylcholine receptor subunit alpha-7 (Homo sapiens, UniProt P36544); assay: Binding affinity to human nACh alpha7 receptor assessed as inhibition constant
[9] = Stability in human plasma incubated upto 60 mins; assay type: ADME, cell-free; settings: read-out: Stability
[10] = Drug distribution in Sprague-Dawley rat liver at 1 mg/kg, iv measured at 10 mins in presence of ETO; assay type: ADME, organism-based; settings: in vivo
[11] = Drug distribution in Sprague-Dawley rat adrenal gland at 1 mg/kg, iv measured at 10 mins in presence of ETO; assay type: ADME, organism-based; settings: in vivo
[12] = Stability in Sprague-Dawley rat plasma assessed as parent compound remaining measured after 10 mins; assay type: ADME, cell-free; settings: read-out: Stability
[13] = Stability in Sprague-Dawley rat plasma assessed as parent compound remaining measured after 30 mins; assay type: ADME, cell-free; settings: read-out: Stability
[14] = Stability in Sprague-Dawley rat plasma assessed as parent compound remaining measured after 60 mins; assay type: ADME, cell-free; settings: read-out: Stability
[15] = target: T1, Alpha-2A adrenergic receptor (Homo sapiens, UniProt P08913); assay: Binding affinity to alpha2A receptor (unknown origin)
T1 sequence (P08913 whole entry): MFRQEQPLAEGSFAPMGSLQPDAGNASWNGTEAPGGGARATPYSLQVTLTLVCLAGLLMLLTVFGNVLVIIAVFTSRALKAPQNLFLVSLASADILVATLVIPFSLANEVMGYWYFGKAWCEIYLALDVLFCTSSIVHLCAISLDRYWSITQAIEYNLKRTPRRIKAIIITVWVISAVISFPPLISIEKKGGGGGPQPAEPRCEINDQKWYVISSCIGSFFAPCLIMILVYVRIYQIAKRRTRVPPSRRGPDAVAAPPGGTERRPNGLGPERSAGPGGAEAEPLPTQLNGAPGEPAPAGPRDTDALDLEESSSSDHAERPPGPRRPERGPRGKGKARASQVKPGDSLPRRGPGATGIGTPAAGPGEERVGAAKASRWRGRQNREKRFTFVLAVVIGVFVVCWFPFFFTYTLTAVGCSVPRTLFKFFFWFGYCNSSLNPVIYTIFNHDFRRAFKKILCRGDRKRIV

[16] = target: T2, Alpha-2C adrenergic receptor (Homo sapiens, UniProt P18825); assay: Binding affinity to alpha2C receptor (unknown origin)
T2 sequence (P18825 whole entry): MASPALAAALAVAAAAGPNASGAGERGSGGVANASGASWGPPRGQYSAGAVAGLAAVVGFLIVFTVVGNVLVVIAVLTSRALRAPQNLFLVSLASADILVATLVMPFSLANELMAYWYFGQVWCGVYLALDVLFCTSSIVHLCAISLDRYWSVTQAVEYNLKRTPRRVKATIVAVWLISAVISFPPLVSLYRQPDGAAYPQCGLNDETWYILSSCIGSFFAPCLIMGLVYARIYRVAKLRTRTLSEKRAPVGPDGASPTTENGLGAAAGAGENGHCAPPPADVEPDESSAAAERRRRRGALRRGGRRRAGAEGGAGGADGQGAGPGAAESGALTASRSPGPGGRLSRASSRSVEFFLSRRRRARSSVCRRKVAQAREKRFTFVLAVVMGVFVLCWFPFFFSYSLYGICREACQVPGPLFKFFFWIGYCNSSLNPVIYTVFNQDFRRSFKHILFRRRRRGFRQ

[17] = target: T3, Alpha-2B adrenergic receptor (Homo sapiens, UniProt P18089); assay: Binding affinity to alpha2B receptor (unknown origin)
T3 sequence (P18089 whole entry): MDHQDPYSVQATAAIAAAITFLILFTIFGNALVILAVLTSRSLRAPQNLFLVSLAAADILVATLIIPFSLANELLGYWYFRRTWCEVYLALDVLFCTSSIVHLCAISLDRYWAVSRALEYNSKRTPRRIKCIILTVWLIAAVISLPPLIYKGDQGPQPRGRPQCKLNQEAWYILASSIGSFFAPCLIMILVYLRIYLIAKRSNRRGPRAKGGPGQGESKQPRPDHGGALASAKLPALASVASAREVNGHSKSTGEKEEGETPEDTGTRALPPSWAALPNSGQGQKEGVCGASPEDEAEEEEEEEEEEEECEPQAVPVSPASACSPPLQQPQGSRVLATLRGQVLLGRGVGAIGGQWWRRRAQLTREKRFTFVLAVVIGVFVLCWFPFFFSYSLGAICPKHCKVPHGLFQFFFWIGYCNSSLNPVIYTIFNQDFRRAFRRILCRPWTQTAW

Neuronal acetylcholine receptor subunit alpha-7 (Rattus norvegicus, UniProt Q05941), sequence (Q05941 whole entry): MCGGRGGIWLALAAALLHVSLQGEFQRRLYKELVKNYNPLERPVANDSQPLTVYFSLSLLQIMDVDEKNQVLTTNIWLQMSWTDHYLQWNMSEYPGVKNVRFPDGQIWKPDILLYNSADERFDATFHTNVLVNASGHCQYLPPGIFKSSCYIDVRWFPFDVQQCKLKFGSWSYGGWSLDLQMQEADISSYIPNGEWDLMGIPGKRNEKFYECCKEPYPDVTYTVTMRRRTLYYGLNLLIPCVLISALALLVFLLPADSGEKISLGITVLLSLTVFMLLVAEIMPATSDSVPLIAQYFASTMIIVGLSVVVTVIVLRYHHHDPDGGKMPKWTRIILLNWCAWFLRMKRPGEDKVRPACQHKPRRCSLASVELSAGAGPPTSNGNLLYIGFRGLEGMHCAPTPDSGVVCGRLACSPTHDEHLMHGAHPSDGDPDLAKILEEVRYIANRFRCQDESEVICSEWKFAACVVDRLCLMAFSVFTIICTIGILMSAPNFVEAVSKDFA
Neuronal acetylcholine receptor subunit alpha-7 (Homo sapiens, UniProt P36544), sequence (P36544 whole entry): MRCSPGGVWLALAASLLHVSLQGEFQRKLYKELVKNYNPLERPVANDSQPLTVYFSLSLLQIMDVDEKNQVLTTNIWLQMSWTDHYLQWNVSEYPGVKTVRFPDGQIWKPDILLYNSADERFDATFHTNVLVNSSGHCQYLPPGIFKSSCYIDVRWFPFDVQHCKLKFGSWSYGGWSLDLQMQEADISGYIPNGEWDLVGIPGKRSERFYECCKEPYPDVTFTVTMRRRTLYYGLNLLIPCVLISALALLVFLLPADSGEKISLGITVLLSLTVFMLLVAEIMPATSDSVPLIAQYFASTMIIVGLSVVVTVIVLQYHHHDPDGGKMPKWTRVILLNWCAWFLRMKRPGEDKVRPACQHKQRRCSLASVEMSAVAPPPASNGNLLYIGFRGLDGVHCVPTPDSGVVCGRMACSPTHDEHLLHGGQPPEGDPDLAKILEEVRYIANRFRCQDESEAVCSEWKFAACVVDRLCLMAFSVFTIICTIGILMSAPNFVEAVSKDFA
Neuronal acetylcholine receptor; alpha4/beta2, sequence (P17787 whole entry): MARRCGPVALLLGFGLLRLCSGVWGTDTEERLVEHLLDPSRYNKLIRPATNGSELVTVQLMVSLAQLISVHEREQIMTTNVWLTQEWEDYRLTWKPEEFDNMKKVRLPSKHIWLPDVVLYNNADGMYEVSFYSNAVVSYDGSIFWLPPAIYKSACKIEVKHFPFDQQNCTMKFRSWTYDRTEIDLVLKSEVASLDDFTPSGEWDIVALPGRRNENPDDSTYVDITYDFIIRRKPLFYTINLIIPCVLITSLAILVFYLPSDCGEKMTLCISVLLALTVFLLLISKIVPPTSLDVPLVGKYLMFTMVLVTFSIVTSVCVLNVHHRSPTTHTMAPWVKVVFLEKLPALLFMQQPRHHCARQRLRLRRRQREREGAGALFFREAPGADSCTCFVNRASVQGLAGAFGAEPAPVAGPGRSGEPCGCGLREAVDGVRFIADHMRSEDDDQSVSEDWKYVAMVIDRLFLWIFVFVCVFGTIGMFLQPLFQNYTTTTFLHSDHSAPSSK
Neuronal acetylcholine receptor; alpha4/beta2, sequence (P43681 whole entry): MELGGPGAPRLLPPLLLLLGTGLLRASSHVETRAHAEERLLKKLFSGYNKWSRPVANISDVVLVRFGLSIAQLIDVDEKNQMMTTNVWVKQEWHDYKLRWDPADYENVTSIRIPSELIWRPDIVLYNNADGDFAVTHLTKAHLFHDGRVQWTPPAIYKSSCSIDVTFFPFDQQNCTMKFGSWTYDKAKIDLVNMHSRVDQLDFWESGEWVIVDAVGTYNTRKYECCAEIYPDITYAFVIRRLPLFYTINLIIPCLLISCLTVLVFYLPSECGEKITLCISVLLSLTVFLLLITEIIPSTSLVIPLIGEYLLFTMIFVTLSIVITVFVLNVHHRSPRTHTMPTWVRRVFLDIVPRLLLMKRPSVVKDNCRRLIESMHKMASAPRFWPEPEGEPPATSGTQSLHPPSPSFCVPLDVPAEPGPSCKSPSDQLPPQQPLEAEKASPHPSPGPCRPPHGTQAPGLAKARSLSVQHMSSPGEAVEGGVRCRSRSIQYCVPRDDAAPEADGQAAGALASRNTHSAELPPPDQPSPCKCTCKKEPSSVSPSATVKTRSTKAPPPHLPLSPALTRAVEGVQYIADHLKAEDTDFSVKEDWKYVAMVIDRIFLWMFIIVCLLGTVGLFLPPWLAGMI

SMILES | logP [1] | logD [2] | pKa [3] | also measured
[18F]c1ccc(-c2nnc(N3CCN4CCC3CC4)o2)cc1 | 2.34 | -0.82 | 8.44 | Ki [4]: > 10000 nM
[18F]c1ccc(OC[C@H]2CCN2)cn1 | 0.66 | -2.02 | 9.01 | Kd [5]: 0.028 nM; Bmax [6]: 3.7 pmol/g
[11CH3]c1ccc(OC(=O)N2CCN3CCC2CC3)cc1 | 1.95 | 1.89 | 8.19 | Ki [7]: 22 nM; Ki [8]: 14 nM; remaining at 1 h [9]: > 80%
COC(=O)c1cncn1[C@H](C)c1ccc([18F])cc1 | 1.65 | 2.82 | 4.08 | Drug uptake [10]: 66%; Drug uptake [11]: 39%; remaining at 10 min [12]: 13%; remaining at 0.5 h [13]: 8%; remaining at 1 h [14]: 2%
[11CH3]OCc1cccnc1N1CCN(C[C@H]2COc3ccccc3O2)CC1 [ORM-13070 C-11] | 2.51 | 1.94 | 7.23 | Kd [15]: 109 nM; Kd [16]: 3.8 nM; Kd [17]: 23 nM

From ChEMBL document CHEMBL5338767, “A Molecular Toolbox of Positron Emission Tomography Tracers for General Anesthesia Mechanism Research” (J Med Chem, 2023)
